Laboratory results: patent publication US20220409692A1, “Systems Chemico-Pharmacology Drugs and Methods of Use” (The Medical College of Wisconsin, priority 2019, published 2022)
Peptide text beside a SMILES is read from it.

Test system: hyperoxic neonatal rat pups
Test: Hyperoxia-induced BPD in neonatal rat pups: lung histology, cell counts and morphometrics
Format: in vivo, Sprague-Dawley rat
Excerpt: Since the number of neonatal rat pups per pregnant dam limits the number of experimental conditions that can be compared, we modified our standard experimental design protocol. The first experiment was designed to determine if hyperoxia increased BPD, while the second was designed to determine if inhibiting MPO oxidant production reduced BPD. At least three sets of neonatal pups from three different dams were used for each experiment. Pups were fed ad libitum from nursing dams. Pups were weighed and inspected daily in room air for less than ten minutes. Nursing dams were switched daily to avoid the impact of nutritional status. Experience has taught us that severity of hyperoxia-induced BPD is litter dependent. To minimize litter differences, we determined the effects of hyperoxia vs. normoxia on BPD in neonatal pups by mixing pups from the litters and randomly reallocating pups with nursing dams.
Immunohistochemistry and Immunocytochemistry: After cannulating the trachea with an Instech Solomon (20G) stainless steel feeding tube (Plymouth Meeting, Pa.), the lungs were inflated with 10% neutral buffered formalin at 25 cm-H2O (2.4 kPa) for 1 h. Lungs were removed after the trachea were securely tied with surgical silk to maintain the pressure, and perfusion fixed with an additional aliquot of 10% neutral buffered formalin for 24 h before paraffin embedding. Lung sections (5 μm) were mounted on SuperFrost plus-coated slides (Denville Scientific, Metuchen, N.J.). Slides were deparaffinized and sections stained with hematoxylin and eosin (H&E). Histology images were captured with a mounted digital camera using an Olympus IX 51 microscope and a 10× objective. Inflammatory cells, myeloid cells including neutrophils, monocytes, and macrophages, were stained with MPO antibody (1:200) overnight at 4° C. and HPR-conjugated anti-rabbit antibody (1:1000) at room temperature for one hour then visualized by diaminobenzidine to generate a dark-brown color. Blood vessels were stained with RECA-1 and visualized with horseradish-conjugated secondary antibody and diaminobenzidine. The average of three sections per pup, and five counts per section (15 counts/pup) was used for statistical analysis. Quantified data were obtained and entered into the record using predetermined codes by one of the coauthors who was not involved in taking the images.
Morphometric Analysis: The mean linear intercept (MLI), or chord length, was used as a method to estimate the volume-to-surface ratio of acinar airspaces whereas radial alveolar count (RAC) and secondary septa were investigated to study the complexity of lung structure (21). Ten equally spaced horizontal lines were drawn on each picture, and the number of intercepts through the alveolar wall was counted. MLI was obtained by the number of times the traverses are placed on the lung times the length of the traverse then divided by the sum of all the intercepts. For the RAC, a line from the center of the respiratory tract perpendicular to the nearest connective tissue septum was drawn, and alveoli intercepting with the line were counted. For measurement of secondary septa, elastin was stained with resorcin fuchsin and Van Gieson's solution.
Since the number of neonatal rat pups per pregnant dam limits the number of experimental conditions that can be compared, we modified our standard experimental protocol. The first study was designed to determine if hyperoxia increased BPD and caused a change in proteins of interest. Data from these studies can be found in on-line supplemental data. The second study was designed to determine if inhibiting MPO toxic oxidant production reduced BPD. At least three sets of neonatal pups from three different dams were used for each study. Pups were fed ad libitum from nursing dams. Pups were inspected daily starting on P1 and weighed starting on P3 in room air for less than ten minutes. Nursing dams were switched daily to avoid the impact of oxygen toxicity. […]

[1] = hyperoxic pups, KYC vs PBS, P10

SMILES: CC(=O)N[C@@H](CCCCN)C(=O)N[C@@H](Cc1ccc(O)cc1)C(=O)N[C@@H](CS)C(N)=O [KYC, N-acetyl lysyltyrosylcysteine amide] (Ac-Lys-Tyr-Cys-NH2)
- RAC (radial alveolar count) (KYC-treated HOX group, P10, PBS-treated HOX 4.2±0.6): 6.3±0.4
- secondary septation (KYC-treated HOX group, P10, PBS-treated HOX 5.0±1.3): 7.8±1.2 /HPF
- capillary count (KYC-treated HOX group, P10, PBS-treated HOX 5.2±1.0): 9.7±3.0 /HPF
- MLI (mean linear intercept) (KYC-treated HOX group, P10, PBS-treated HOX 95.9±9.1): 74.1±4.7 μm
- MPO-positive myeloid cell count (hyperoxia (O2>90%) pups, KYC 5 mg/kg twice per day i.p. P2-P10, lungs at P10, PBS 2.0±0.7): 0.8±0.7 /HPF
- reduction of myeloid cell recruitment (MPO+ myeloid cells) (hyperoxic lungs, KYC vs PBS, P10): approximately 50%
- decrease of MLI [1]: approximately 22%
- increase of RAC [1]: approximately 35%
- increase of blood vessel counts [1]: ~92%
- increase of secondary septa [1]: ~55%
- 8-OH-dG immunofluorescence staining (oxidative DNA damage) (hyperoxic rat pups, KYC vs PBS): reduced 8-OH-dG in the nuclei of lung cells
